Assay results reported in patent publication US20220242861A1, “IMIDAZOPYRIDINYL COMPOUNDS AND USE THEREOF FOR TREATMENT OF PROLIFERATIVE DISORDERS” (1ST Biotherapeutics, Inc., priority 2019, published 2022).
Each block holds one molecule with its values, some of them ahead of it.

Experiments:
[1] = system: K562 human leukemia cell line; test: K562 Cell Proliferation Assay (MTS); format: cell-based; conditions: K562 cells, 48 hr incubation, MTS cell viability
Protocol: K562 human leukemia cell line purchased from Korean cell line bank (KCLB) and were cultured in Roswell Park Memorial Institute (RPMI) 1640 Medium supplemented with 10% fetal bovine serum (FBS) and 1% penicillin-streptomycin in a humidified incubator in an atmosphere of 5% CO2 at 37° C. Cells were seeded in 96-well plates at a density of 2×10^3 cells/well in 100 […] media. Compounds were diluted as two times concentration in 100 μl of media and added to each well. Compounds were 5-fold serially diluted for 6 points and treated from 5 μM to 1.6 nM in K562 cells. After 48 hr incubation, Compound treated cells were analyzed for anti-proliferation assay. Cell viability was investigated using the Cell Titer 96 Aqueous One Solution Reagent. Briefly, 200 μl of media were supplemented with 40 μl of MTS solution, incubated for 4hr, and then the absorbance was recorded at 490 nm with a 96-well plate reader. G150 values were calculated from a series of percent of cell viability at a range of compound concentration. GraphPad Prism 8 software or SigmaPlot 13.0 was used to generate G150 values.

[2] = biological target: T1, recombinant human c-Kit (Homo sapiens, UniProt P10721); test: c-Kit Kinase Assay (ADP-Glo); format: biochemical; conditions: In vitro kinase activity
T1 construct: purchased Signalchem
Protocol: (§1) ADP-Glo assay kit was purchased from Promega. Magnesium chloride (MgCl2), ethylene glycol-bis(8-aminoethyl ether)-N,N,N′,N′-tetraacetic acid (EGTA), manganese (II) chloride (MnCl2), bovine serum albumin (BSA), 1,4-dithiothreitol (DTT) and dimethyl sulfoxide (DMSO) were purchased from Sigma-Aldrich. HEPES buffer was purchased from Gibco. c-Kit kinase and poly (4:1 Glu, Tyr) peptide were purchased from Signalchem.
(§2) c-Kit kinase activity was measured by Promega's ADP-Glo™ Assay. In this assay, 100ng of recombinant human c-Kit is incubated with 5 μL of compounds (0.5% DMSO), 5 μL of Poly (4:1 Glu, Tyr) peptide (50 ng/μl) and 5 μL of ATP (50 μM) in buffer (50 mM HEPES, pH7.5; 10 mM MgCl2; 1 mM EGTA; 0.05% BSA; 50μM DTT; 2mM MnCl2). The assay was started by incubating the reaction mixture in a 96-well plate at 30° C. for 120-min. After the incubation, 25 μL ADP-Glo reagent was added and the reaction was incubated at room temperature for 40-min to stop the reaction and degrade residual ATP. The ADP product was then converted to ATP by adding 50 μL per well of detection reagent. Luminescence was detected after 30-min room temperature incubation with the Molecular device I3X plate reader. The IC50 values were calculated from a series of percent inhibition values determined at a range of inhibitor concentration using software routines as implemented in the GraphPad Prism 8 software and Sigma Plot 13.0.

[3] = biological target: T2, recombinant human c-Kit (D816V) (Homo sapiens, UniProt P10721, D816V); test: c-Kit (D816V) Kinase Assay (ADP-Glo); format: biochemical; conditions: In vitro kinase activity
T2 construct: purchased Signalchem
Protocol: as §1, with “glycol-bis(β-aminoethyl” for “glycol-bis(8-aminoethyl”, “(EGTA),” for “(EGTA), manganese (II) chloride (MnCl2),”, “c-Kit (D816V)” for “c-Kit”
as §2, with “c-Kit (D816V)” for “c-Kit”, “Promega's ADP-GIoTM” for “Promega's ADP-Glo™”, “assay, 2.5ng” for “assay, 100ng”, “ATP (15” for “ATP (50”, “BSA; 50 μM DTT).” for “BSA; 50μM DTT; 2mM MnCl2).”

[4] = biological target: T3, recombinant human PDGFRα (D842V) (Homo sapiens, UniProt P16234, D842V); test: PDGFRα (D842V) Kinase Assay (ADP-Glo); format: biochemical; conditions: In vitro kinase activity
T3 construct: purchased Signalchem
Protocol: (§3) ADP-Glo assay kit was purchased from Promega. Magnesium chloride (MgCl2), ethylene glycol-bis(p-aminoethyl ether)-N, N, N′, N′-tetraacetic acid (EGTA), bovine serum albumin (BSA), 1,4-dithiothreitol (DTT) and dimethyl sulfoxide (DMSO) were purchased from Sigma-Aldrich. HEPES buffer was purchased from Gibco. PDGFRα (D842V) Kinase and poly (4:1 Glu, Tyr) peptide were purchased from Signalchem.
as §2, with “PDGFRα (D842V) kinase” for “c-Kit kinase”, “assay, 10 ng” for “assay, 100ng”, “human PDGFRα (D842V)” for “human c-Kit”, “peptide (100” for “peptide (50”, “ATP ([…])” for “ATP (50 μM)”, “BSA; […]).” for “BSA; 50μM DTT; 2mM MnCl2).”

[5] = biological target: T4, recombinant human PDGFRα (Homo sapiens, UniProt P16234); test: PDGFRα Kinase Assay (ADP-Glo); format: biochemical; conditions: In vitro kinase activity, read-out: PDGFRa IC50
T4 construct: purchased Signalchem
Protocol: as §3, with “ether)-N,N,N′,N′-tetraacetic” for “ether)-N, N, N′, N′-tetraacetic”, “PDGFRα” for “PDGFRα (D842V)”
PDGFRα kinase activity was measured by Promega's ADP-Glo™ Assay. In this assay, 40ng of recombinant human PDGFRα is incubated with 5 μL of compounds (0.5% DMSO), 5 μL of Poly (4:1 Glu, Tyr) peptide (100 ng/μl) and 5 μL of ATP ([…]) in buffer (50 mM HEPES, pH7.5; 10 mM MgCl2; 1 mM EGTA; 0.05% BSA; 50 μM DTT). The assay was started by incubating the reaction mixture in a 96-well plate at 30° C. for 60-min. After the incubation, 25 μL ADP-Glo reagent was added and the reaction was incubated at room temperature for 40-min to stop the reaction and degrade residual ATP. The ADP product was then converted to ATP by adding 50 μL per well of detection reagent. Luminescence was detected after 30-min room temperature incubation with the Molecular device I3X plate reader. The IC50 values were calculated from a series of percent inhibition values determined at a range of inhibitor concentration using software routines as implemented in the GraphPad Prism 8 software and Sigma Plot 13.0.

T3 sequence (P16234 24-1089 D842V): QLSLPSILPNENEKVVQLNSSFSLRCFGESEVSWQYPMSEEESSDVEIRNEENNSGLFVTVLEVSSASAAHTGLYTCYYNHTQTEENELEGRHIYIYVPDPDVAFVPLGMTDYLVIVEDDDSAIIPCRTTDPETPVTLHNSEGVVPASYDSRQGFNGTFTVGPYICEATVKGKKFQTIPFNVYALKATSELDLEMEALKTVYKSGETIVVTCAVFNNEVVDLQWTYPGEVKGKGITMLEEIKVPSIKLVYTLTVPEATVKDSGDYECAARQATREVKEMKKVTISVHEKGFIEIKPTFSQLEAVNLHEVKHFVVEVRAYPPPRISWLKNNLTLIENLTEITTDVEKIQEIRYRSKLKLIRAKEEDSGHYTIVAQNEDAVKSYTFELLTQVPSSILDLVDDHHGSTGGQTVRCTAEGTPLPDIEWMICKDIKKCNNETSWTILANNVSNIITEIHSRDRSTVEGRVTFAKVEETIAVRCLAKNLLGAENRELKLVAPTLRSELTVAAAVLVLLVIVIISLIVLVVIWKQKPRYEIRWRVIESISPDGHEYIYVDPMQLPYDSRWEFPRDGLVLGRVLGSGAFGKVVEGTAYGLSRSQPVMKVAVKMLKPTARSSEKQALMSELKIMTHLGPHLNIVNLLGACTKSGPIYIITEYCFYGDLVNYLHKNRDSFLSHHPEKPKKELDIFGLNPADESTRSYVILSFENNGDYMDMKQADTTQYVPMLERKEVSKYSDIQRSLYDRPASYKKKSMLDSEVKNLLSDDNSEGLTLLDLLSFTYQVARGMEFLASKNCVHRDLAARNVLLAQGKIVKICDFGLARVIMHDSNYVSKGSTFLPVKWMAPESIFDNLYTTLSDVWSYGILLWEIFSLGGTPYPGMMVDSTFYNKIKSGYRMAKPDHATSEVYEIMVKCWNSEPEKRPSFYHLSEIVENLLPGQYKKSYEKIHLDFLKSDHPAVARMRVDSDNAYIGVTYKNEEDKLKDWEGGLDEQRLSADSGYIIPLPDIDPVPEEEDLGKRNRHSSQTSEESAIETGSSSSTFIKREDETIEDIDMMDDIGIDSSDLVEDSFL
T2 sequence (P10721 26-976 D816V): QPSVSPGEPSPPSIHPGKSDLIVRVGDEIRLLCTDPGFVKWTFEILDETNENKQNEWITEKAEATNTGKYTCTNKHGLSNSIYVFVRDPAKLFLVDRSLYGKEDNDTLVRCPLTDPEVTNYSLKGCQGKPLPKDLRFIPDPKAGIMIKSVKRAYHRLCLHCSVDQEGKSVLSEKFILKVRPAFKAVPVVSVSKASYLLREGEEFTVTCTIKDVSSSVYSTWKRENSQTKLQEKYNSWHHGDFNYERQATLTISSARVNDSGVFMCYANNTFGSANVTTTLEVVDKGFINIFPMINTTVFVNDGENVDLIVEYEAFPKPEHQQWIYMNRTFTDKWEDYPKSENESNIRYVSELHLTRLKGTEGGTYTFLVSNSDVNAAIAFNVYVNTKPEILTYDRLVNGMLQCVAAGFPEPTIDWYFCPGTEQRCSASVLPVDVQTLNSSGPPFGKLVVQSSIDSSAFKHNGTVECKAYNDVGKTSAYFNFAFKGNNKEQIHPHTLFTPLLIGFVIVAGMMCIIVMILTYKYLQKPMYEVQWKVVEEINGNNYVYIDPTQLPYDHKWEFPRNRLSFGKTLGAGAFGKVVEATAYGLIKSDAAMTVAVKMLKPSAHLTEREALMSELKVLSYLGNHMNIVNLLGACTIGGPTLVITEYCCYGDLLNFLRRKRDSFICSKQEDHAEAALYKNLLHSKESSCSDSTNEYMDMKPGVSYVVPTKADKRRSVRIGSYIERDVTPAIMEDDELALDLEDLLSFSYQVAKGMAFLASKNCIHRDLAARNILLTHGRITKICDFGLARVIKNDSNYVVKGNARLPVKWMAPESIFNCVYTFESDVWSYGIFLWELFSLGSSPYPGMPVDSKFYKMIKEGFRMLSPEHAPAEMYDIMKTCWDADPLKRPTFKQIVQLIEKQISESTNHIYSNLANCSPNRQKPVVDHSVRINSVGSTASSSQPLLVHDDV
T1 sequence (P10721 26-976): as the sequence (P10721 26-976 D816V) above, with V791D counted along it
T4 sequence (P16234 24-1089): as the sequence (P16234 24-1089 D842V) above, with V819D counted along it

- IC50 [1]: 0.101 to 1 µM
SMILES: Cc1c(F)cccc1-c1ccc2nc(NC(=O)[C@@H]3C[C@@H]3F)cn2c1 [Example 1, (1 S,2 S)-2-fluoro-N-(6-(3-fluoro-2-methylphenyl)imidazo[1,2-a]pyridin-2-yl)cyclopropane-1-carboxamide]

- IC50 [1]: 0.101 to 1 µM
SMILES: Cc1ccc(F)cc1-c1ccc2nc(NC(=O)[C@@H]3C[C@@H]3F)cn2c1 [Example 11, (1 S,2 S)-2-fluoro-N-(6-(5-fluoro-2-methylphenyl)imidazo[1,2-a]pyridin-2-yl)cyclopropane-1-carboxamide]

- IC50 [1]: 0.01 to 0.1 µM
SMILES: Cc1ccc(O)cc1-c1ccc2nc(NC(=O)[C@@H]3C[C@@H]3F)cn2c1 [Example 12, (1 S,2 S)-2-fluoro-N-(6-(5-hydroxy-2-methylphenyl)imidazo[1,2-a]pyridin-2-yl)cyclopropane-1-carboxamide]

- IC50 [1]: 0.01 to 0.1 µM
SMILES: Cc1ccc2[nH]ccc2c1-c1ccc2nc(NC(=O)[C@@H]3C[C@@H]3F)cn2c1 [Example 15, (1 S,2 S)-2-fluoro-N-(6-(5-methyl-1H-indol-4-yl)imidazo[1,2-a]pyridin-2-yl)cyclopropane-1-carboxamide]

- IC50 [1]: 0.01 to 0.1 µM
SMILES: CNc1ccc(C)c(-c2ccc3nc(NC(=O)[C@@H]4C[C@@H]4F)cn3c2)c1 [Example 24, (1 S,2 S)-2-fluoro-N-(6-(2-methyl-5-(methylamino)phenyl)imidazo[1,2-a]pyridin-2-yl)cyclopropane-1-carboxamide]

- IC50 [1]: 0.01 to 0.1 µM
SMILES: Cc1ccc(-c2cc[nH]c2)cc1-c1ccc2nc(NC(=O)[C@@H]3C[C@@H]3F)cn2c1 [Example 40, (1 S,2 S)-2-fluoro-N-(6-(2-methyl-5-(1H-pyrrol-3-yl)phenyl)imidazo[1,2-a]pyridin-2-yl)cyclopropane-1-carboxamide]

- IC50 [2]: > 1 µM
- IC50 [3]: > 1 µM
- IC50 [4]: 0.101 to 1 µM
- IC50 [5]: > 1 µM
SMILES: COCc1c(F)cccc1-c1ccc2nc(NC(=O)[C@@H]3C[C@@H]3F)cn2c1 [Example 64, (1 S,2 S)-2-fluoro-N-(6-(3-fluoro-2-(methoxymethyl)phenyl)imidazo[1,2-a]pyridin-2-yl)cyclopropanecarboxamide]

- IC50 [2]: > 1 µM
- IC50 [3]: > 1 µM
- IC50 [4]: > 1 µM
- IC50 [5]: > 1 µM
SMILES: O=C(Nc1cn2cc(-c3cccc(F)c3-c3ccco3)ccc2n1)[C@@H]1C[C@@H]1F [Example 65, (1 S,2 S)-2-fluoro-N-(6-(3-fluoro-2-(furan-2-yl)phenyl)imidazo[1,2-a]pyridin-2-yl)cyclopropanecarboxamide]

- IC50 [2]: > 1 µM
- IC50 [3]: > 1 µM
- IC50 [4]: > 1 µM
- IC50 [5]: > 1 µM
SMILES: CC(=O)c1c(F)cccc1-c1ccc2nc(NC(=O)[C@@H]3C[C@@H]3F)cn2c1 [Example 68, (1 S,2 S)-N-(6-(2-acetyl-3-fluorophenyl)imidazo[1,2-a]pyridin-2-yl)-2-fluorocyclopropanecarboxamide]

- IC50 [1]: 0.101 to 1 µM
SMILES: Cc1c(F)cccc1-c1ccc2nc(NC(=O)C3CC3)cn2c1 [Example 70, N-(6-(3-fluoro-2-methylphenyl)imidazo[1,2-a]pyridin-2-yl)cyclopropanecarboxamide]

- IC50 [1]: 0.101 to 1 µM
SMILES: Cc1c(F)cccc1-c1ccc2nc(NC(=O)C3CC3(F)F)cn2c1 (centres unmarked) [Example 77, 2,2-difluoro-N-(6-(3-fluoro-2-methylphenyl)imidazo[1,2-a]pyridin-2-yl)cyclopropanecarboxamide]

- IC50 [2]: > 1 µM
- IC50 [3]: > 1 µM
SMILES: CN(C)Cc1c(F)cccc1-c1ccc2nc(NC(=O)[C@@H]3C[C@@H]3F)cn2c1 [Example 84, (1 S,2 S)-N-(6-(2-((dimethylamino)methyl)-3-fluorophenyl)imidazo[1,2-a]pyridin-2-yl)-2-fluorocyclopropanecarboxamide]

- IC50 [1]: 0.101 to 1 µM
SMILES: O=C(Nc1cn2cc(-c3cnc4[nH]ccc4c3)ccc2n1)[C@@H]1C[C@@H]1F [Example 85, (1 S,2 S)-N-(6-(1H-pyrrolo[2,3-b]pyridin-5-yl)imidazo[1,2-a]pyridin-2-yl)-2-fluorocyclopropanecarboxamide]

- IC50 [1]: 0.01 to 0.1 µM
SMILES: Cc1cc2[nH]ccc2cc1-c1ccc2nc(NC(=O)[C@@H]3C[C@@H]3F)cn2c1 [Example 92, (1 S,2 S)-2-fluoro-N-(6-(6-methyl-1H-indol-5-yl)imidazo[1,2-a]pyridin-2-yl)cyclopropanecarboxamide]

- IC50 [1]: 0.101 to 1 µM
SMILES: Cc1cc2nc[nH]c2cc1-c1ccc2nc(NC(=O)[C@@H]3C[C@@H]3F)cn2c1 [Example 94, (1 S,2 S)-2-fluoro-N-(6-(5-methyl-1H-benzo[d]imidazol-6-yl)imidazo[1,2-a]pyridin-2-yl)cyclopropanecarboxamide]

- IC50 [1]: 0.01 to 0.1 µM
SMILES: Cc1cc2ncsc2cc1-c1ccc2nc(NC(=O)[C@@H]3C[C@@H]3F)cn2c1 [Example 103, (1 S,2 S)-2-fluoro-N-(6-(5-methylbenzo[d]thiazol-6-yl)imidazo[1,2-a]pyridin-2-yl)cyclopropanecarboxamide]
